The values below come from paper PMC10746280, “Bacterial efflux pump modulators prevent bacterial growth in macrophages and under broth conditions that mimic the host environment” (mBio, 2023).

By pKd is commonly meant −log10 of the Kd, conventionally taken in molar units. Broadly, the pIC50 is −log10 of the IC50, conventionally taken in molar units.

SMILES strings stand for the structures. pIC50, pKd: −log10 of the molar value.

Data set [1] deals with Klebsiella pneumoniae AcrB multidrug efflux pump. Also noted: method as in PMID 37067435. The note with it: K. pneumoniae AcrB; cited from earlier work.
The subject of the next data set is RAW 264.7 macrophages. In words: SAFIRE macrophage assay: host toxicity (adherent macrophage count, morphology). It is filed as cell-based. The essentials: (§1)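 RAW 264.7 macrophages infected with S. Typhimurium SL1344 sifB::gfp (MOI ~30), gentamicin 40 µg/mL, then compound from 2 h to 18 h post-infection. Confocal imaging with MitoTracker and DAPI; toxicity as adherent MitoTracker-positive macrophage count, bacterial load as GFP+ macrophage area.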

Data set [2] has as its system S. Typhimurium SL1344 (sifB::gfp) in RAW 264.7 macrophages. Put plainly: SAFIRE macrophage assay: intracellular bacterial load (GFP signal within macrophages). It is filed as cell-based, Salmonella enterica serotype Typhimurium. Particulars: for 5 uM Avg Antibacterial Score / 25 uM Avg Antibacterial Score: 'Toxic' given instead of a score. The essentials:
as §1

For another data set, the system named is S. Typhimurium. Put plainly: Checkerboard growth assays with antibiotics in LPM 5.5 (FICI and MuSyC analyses). Details: Antibiotic MIC Combination: unit not given here; EPM MIC Combination: unit: µM. It is filed as cell-based. Particulars: for log10(α1) [95% CI] (log-fold-change in potency of EPM due to the antibiotic) / Βobs [95% CI] (proportion increase in maximal efficacy of the antibiotic) / log10(α2) [95% CI] (log-fold-change in potency of the antibiotic due to the EPM): MuSyC fit; for Antibiotic MIC Combination / EPM MIC Combination / FICI value: LPM 5.5. The protocol:
To examine whether the EPM analogs interact additively or synergistically with antibiotics, checkerboard growth assays were carried out in LPM 5.5. We compared three antibiotics (ciprofloxacin, doxycycline, erythromycin) and three EPM analogs (CU032, CU187, CU232) and the EPM35 parent compound (Fig. 6A). Standard fractional inhibitory concentration index (FICI) analyses supported synergy between the EPM analogs and ciprofloxacin (Fig. 6B). Since FICI values cannot distinguish between synergy due to changes in potency (activity) versus efficacy (the extent of the effect) ([42], [43]), we used the MuSyC synergy algorithm to measure EPM-antibiotic synergy ([44], [45]). The data were well fit by the MuSyC equation, with an R^2 of greater than 0.96 for all checkerboards (Table S2). […] Moreover, the consistency in the synergy of potency values across the antibiotics with different EPM analogs points toward a shared mechanism of action: the EPMs could modify the pharmacodynamics of the efflux process and prevent export of specific substrates through interactions with AcrB. We posit that the EPMs differentially reduce antibiotic export resulting in a higher effective intracellular concentration of the antibiotic.
Overnight cation-adjusted MHB-grown cultures of SL1344 or SA10801 were diluted in MHB or LPM 5.5 to an optical density at 600 nm (OD600) of 0.01 and distributed into polystyrene 96-well flat-bottom plates. EPM analogs were added at concentrations up to 300 µM, near the limit of solubility. The antibiotics ciprofloxacin, doxycycline, and erythromycin were added up to concentrations of 2 µM, 2 µM, and 8 µM, respectively. The final DMSO concentration was at or below 2% in all wells. Plates were grown at 37°C with shaking for 18 h and OD600 was monitored (BioTek Synergy H1, BioTek Eon). Each experiment was performed with biological triplicate or higher as indicated. Percent growth was determined by normalizing to OD600 reads in wells containing no D66 or antibiotic. Checkerboards in LPM 5.5 medium were performed with culture grown overnight in LB and diluted to an OD600 of 0.01 in LPM 5.5 and compounds/antibiotics were added as previously described. MuSyC analysis was pursued as previously described ([44], [45]). Briefly, the 2D Hill equation was fit to the normalized growth inhibition data from the checkerboards using a bounded non-linear least square regression algorithm. A Monte Carlo sampling method was used to compute the 95% CI in the parameter fits from three biological replicates. The bounds on the parameters minimal and maximal efficacy of the antibiotics and EPMs (E0,Emax) were [0.99,1.01] and [0,1], respectively ([44], [45]).

Data set [3] deals with Bacillus subtilis expressing mNeongreen-FtsZ. In words: Membrane voltage disruption assay (mNeongreen-FtsZ delocalization). It is filed as cell-based. The text has this: We therefore monitored membrane integrity in the presence of EPM analogs by evaluating membrane voltage with mNeongreen-FtsZ ([28][–][30]). The FtsZ protein localizes to the bacterial septum based on membrane potential, and rapid delocalization of fluorescent FtsZ reporters occurs when voltage across the membrane is disrupted ([31], [32]). We monitored mNeongreen-FtsZ localization in a Gram-positive bacterium, Bacillus subtilis, to eliminate the potentially confounding issue of the passage of EPM analogs through the outer membrane at different rates ([24], [33][–][36]).
To determine whether exposure to compound dislodges FtsZ from the cell septum, an overnight culture of Bacillus subtilis grown in LPM at pH 5.5 (LPM 5.5) expressing mNeonGreen-FtsZ (strain DK5092) was exposed to DMSO, CCCP (100 µM) or an EPM analog (150 µM) for 15 or 30 min, as indicated. Bacteria were immobilized on 1% agarose pads made with LPM under a coverslip. To set the threshold value for the FtsZ septal ring, mNeonGreen signal (excitation 488 nm, emission 525 nm) from at least 20 DMSO-treated cells was quantified using a CV1000 confocal microscope with a 100× oil, NA = 1.4 objective. A background-subtracted image was made by subtracting the median intensity from full original images. A signal threshold of ≥400 arbitrary units per pixel was set (Fig. 4B). Then, we manually confirmed that mNeonGreen signal above threshold was at the center of the bacterial rod. We examined 50 cells per sample from at least three biological replicates (≥150 cells per condition). A MATLAB program (https://github.com/Betterton-Lab/FtsZ-Quantification) counted the number of pixels above threshold per cell and averaged this value across all cells for each condition and this value is reported in the graph (Fig. 4C).

Take `CC[C@H]1OC(=O)[C@H](C)[C@@H](O[C@H]2C[C@@](C)(OC)[C@@H](O)[C@H](C)O2)[C@H](C)[C@@H](O[C@@H]2O[C@H](C)C[C@H](N(C)C)[C@H]2O)[C@](C)(O)C[C@@H](C)C(=O)[C@H](C)[C@@H](O)[C@]1(C)O` [erythromycin]: the pKd in data set [1] is 4.84.

As to `NC1CCN(CC(O)COc2ccc(Cl)cc2)CC1` (stereo not shown) [CU187], the “5 uM Avg Cell # Score” value in the data set with RAW 264.7 macrophages worked out at 121. In addition, in the data set on RAW 264.7 macrophages, the “25 uM Avg Cell # Score” value turned out to be 98. Further, in data set [2], the “5 uM Avg Antibacterial Score” value turned out to be 25. Further, the “25 uM Avg Antibacterial Score” value in data set [2] came to 24. Further, in data set [2] (Salmonella enterica, TYPHIMURIUM, RAW264.7, read-out: SAFIRE IC50), the pIC50 is 9.40. Also, the “log10(α1) [95% CI] (log-fold-change in potency of EPM due to the antibiotic)” value with S. Typhimurium (Ciprofloxacin) was 0.33 [0.19,0.37]; in the data set with S. Typhimurium (Doxycycline), 0.32 [-0.07,0.39]. In addition, the “Βobs [95% CI] (proportion increase in maximal efficacy of the antibiotic)” value in the data set on S. Typhimurium (Ciprofloxacin) is 0.01 [-0.01,0.04]; with S. Typhimurium (Doxycycline), 0.02 [-0.0,0.02]; in the data set on S. Typhimurium (Erythromycin), 0.04 [0.03,0.04]. Further, the “log10(α2) [95% CI] (log-fold-change in potency of the antibiotic due to the EPM)” value in the data set with S. Typhimurium (Doxycycline) is 0.46 [0.37,0.47]; with S. Typhimurium (Erythromycin), 0.93 [0.85,0.96]. Also, the results for the “Antibiotic MIC Combination” value in the data set on S. Typhimurium (ciprofloxacin (CIPRO) MIC in combination with the EPM) and with S. Typhimurium (doxycycline (DOXY) MIC in combination with the EPM) were 0.2 and 1, respectively. For the same molecule, the “EPM MIC Combination” value in the data set on S. Typhimurium (with ciprofloxacin (CIPRO)) came to 66; in the data set on S. Typhimurium (with doxycycline (DOXY)), 100; in the data set with S. Typhimurium (with erythromycin (ERY)), 100. In addition, the results for the FICI value in the data set on S. Typhimurium (with ciprofloxacin (CIPRO)), with S. Typhimurium (with doxycycline (DOXY)) and with S. Typhimurium (with erythromycin (ERY)) were 0.27, 0.45 and 0.58, respectively. Further, in data set [3] (150 µM, 15 min, LPM 5.5), the “effect on mNeongreen-FtsZ ring size / localization” value is listed as “did not alter FtsZ localization”.

Consider `N#CC(C#N)=NNc1cccc(Cl)c1` [CCCP, carbonyl cyanide m-chlorophenyl hydrazone, reference compound], for which, in data set [3] (100 µM), the “effect on FtsZ localization” value was “delocalized FtsZ”.

For `COC(=O)c1ccc(OCC(O)CN2CCC(Nc3nccc(C(F)(F)F)n3)C2)cc1` (stereo not shown) [CU091], in the data set on RAW 264.7 macrophages, the “5 uM Avg Cell # Score” value is 89 and the “25 uM Avg Cell # Score” value was 95. Moreover, in data set [2], the “5 uM Avg Antibacterial Score” value amounted to 97 and the “25 uM Avg Antibacterial Score” value was 9.52.

For `N#Cc1ccc(OCC(O)CN2CCC(Nc3nccc(C(F)(F)F)n3)C2)cc1` (stereo not shown) [CU094], in the data set with RAW 264.7 macrophages, the “5 uM Avg Cell # Score” value worked out at 91 and the “25 uM Avg Cell # Score” value stood at 71. Moreover, in data set [2], the “5 uM Avg Antibacterial Score” value is 105 and the “25 uM Avg Antibacterial Score” value is 41.

As to `OC(COc1ccc(Cl)c(Cl)c1)CN1CCC2(CCO2)C1` (stereo not shown) [CU228], in the data set with RAW 264.7 macrophages, the “5 uM Avg Cell # Score” value was 111 and the “25 uM Avg Cell # Score” value is listed as 102. In data set [2], the “5 uM Avg Antibacterial Score” value is recorded as 98 and the “25 uM Avg Antibacterial Score” value was 58.

Regarding `CCOC(=O)c1cccc(OCC(O)CN2CCC(Nc3nccc(C(F)(F)F)n3)C2)c1` (stereo not shown) [CU090], in the data set on RAW 264.7 macrophages, the “5 uM Avg Cell # Score” value is reported as 91 and the “25 uM Avg Cell # Score” value is 48. Moreover, in data set [2], the “5 uM Avg Antibacterial Score” value amounted to 70 and the “25 uM Avg Antibacterial Score” value is “Toxic”.

In the case of `CNC1CCN(C[C@@H](O)COc2ccc(Cl)c(Cl)c2)C1` (stereo partly shown) [CU163], in the data set with RAW 264.7 macrophages, the “5 uM Avg Cell # Score” value is reported as 101 and the “25 uM Avg Cell # Score” value came out at 111. For the same molecule, in data set [2], the “5 uM Avg Antibacterial Score” value was determined as 65 and the “25 uM Avg Antibacterial Score” value is 47.

As to `OC(COc1ccccc1Cl)CN1CCC(Nc2ncccn2)CC1` (stereo not shown) [CU049], in the data set on RAW 264.7 macrophages, the “5 uM Avg Cell # Score” value worked out at 84 and the “25 uM Avg Cell # Score” value is on record as 121. Also, in data set [2], the “5 uM Avg Antibacterial Score” value is 104 and the “25 uM Avg Antibacterial Score” value amounted to 61.

As to `NC1CCN(CC(O)COc2ccc(Cl)c(Cl)c2)CC1` (stereo not shown) [CU173], in the data set with RAW 264.7 macrophages, the “5 uM Avg Cell # Score” value amounted to 98 and the “25 uM Avg Cell # Score” value is 43. In addition, in the data set on RAW 264.7 macrophages (16 h after treatment), the “toxicity to infected macrophages in SAFIRE” value was “toxic”. For the same molecule, in data set [2], the “5 uM Avg Antibacterial Score” value is recorded as 20 and the “25 uM Avg Antibacterial Score” value amounted to 30.
